Here are results for 18 compounds from patent publication US9850206B2, “S1P and/or ATX modulating agents” (BIOGEN MA INC., priority 2012, dated 2017).

For one assay, the target named is T1, S1P4 (Homo sapiens, UniProt O95977).
T1 sequence (O95977 1-384): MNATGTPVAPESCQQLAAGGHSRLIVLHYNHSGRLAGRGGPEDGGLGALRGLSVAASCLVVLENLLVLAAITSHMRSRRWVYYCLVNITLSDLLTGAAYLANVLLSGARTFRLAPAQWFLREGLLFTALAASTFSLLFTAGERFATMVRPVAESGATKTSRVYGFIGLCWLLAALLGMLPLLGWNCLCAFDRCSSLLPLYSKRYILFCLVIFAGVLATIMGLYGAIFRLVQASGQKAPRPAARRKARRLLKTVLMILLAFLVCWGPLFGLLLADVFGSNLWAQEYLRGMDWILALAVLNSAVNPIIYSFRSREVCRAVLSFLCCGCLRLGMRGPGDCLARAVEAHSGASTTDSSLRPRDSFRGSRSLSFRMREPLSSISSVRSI
The assay is described as follows: S1P receptor activity assay (calcium flux, FLIPR TETRA), S1P4. It counts as cell-based. From the text: (§1) Agonist percentage activation determinations were obtained by assaying sample compounds and referencing the Emax control for each receptor profiled. Antagonist percentage inhibition determinations were obtained by assaying sample compounds and referencing the control EC80 wells for each receptor profiled. The samples were run using a “Single Addition” assay protocol for the agonist and antagonist assay run. The protocol design was as follows:
(§2) Master stock solution: Unless specified otherwise, all sample compounds were diluted in 100% anhydrous DMSO including all serial dilutions. All control wells contained identical solvent final concentrations as did the sample compound wells.
(§3) Compound plate for assay: The sample compounds were transferred from a master stock solution into a daughter plate that was used in the assay. Each sample compound was diluted into assay buffer (1×HBSS with 20 mM HEPES and 2.5 mM Probenecid) at an appropriate concentration to obtain final concentrations.
(§4) Sample compounds were plated in an eight-point, four-fold dilution series in duplicate with a top concentration of 10 μM. The concentrations described here reflect the final concentration of the compounds during the antagonist assay.
(§5) Reference agonists were handled as mentioned above serving as assay control. The reference agonists were handled as described above for Emax.
(§6) Assay was read for 180 seconds using the […] (This assay run added sample compounds and reference agonist to respective wells). At the completion of the first “Single Addition” assay run, assay plate was removed from the […] and placed at 25° C. for seven (7) minutes.
(§7) Using the EC80 values determined during the agonist assay, stimulated all pre-incubated sample compound and reference antagonist (if applicable) wells with EC80 of reference agonist. Read for 180 seconds using the […] (This assay added reference agonist to respective wells—then fluorescence measurements were collected to calculate percentage inhibition values).
(§8) All plates were subjected to appropriate baseline corrections. Once baseline corrections were processed, maximum fluorescence values were exported and data manipulated to calculate percentage activation, percentage inhibition and Z′.
(In general: A change in cytosolic calcium serves as a functional read-out for many receptors and channels.)

Another assay concerns the target T2, Human ATX protein (Homo sapiens, UniProt Q13822).
T2 construct: made in house
Kind of assay: Autotaxin (ATX) FRET assay with FS-3 substrate. The format is biochemical. From the text: ATX (Autotaxin) is a 125 KDa glycoprotein with lysophospholipase D (LPLD) activity that generates the bioactive lipid lysophosphatidic acid (LPA) from lysophosphatidylcholine (LPC). The ATX biochemical assay utilizes a FRET (fluorescence resonance energy transfer) technology platform. […] ATX catalyzes the hydrolysis of the substrate which separates the dabsyl quencher from the fluorescein reporter, which becomes fluorescent. The reaction is monitored by a SpectraMax M5 (Molecular Devices, Sunnyvale, Calif.) with at excitation wavelength 485 nm and emission wavelength 535 nm.
Fatty acid free-BSA (Sigma A8806): 10 mg/mL in H2O, stored at 4° C.
2×ATX assay buffer: 100 mM Tris, 280 mM NaCl, 10 mM KCl, 2 mM CaCl2, 2 mM MgCl2, pH 7.4.
Human ATX protein: expressed and purified in house. Stored at −80° C.
Substrate FS-3 (Echelon, L-2000): 100 μg in 77.74 μL H2O (1 mM stock), stored at −20° C.
Compound dilution—All compounds were provided at 10 mM in 100% DMSO. In the first well, 2 μL of 10 mM compound was added to 78 μL of DMSO (1:40 dilution). In subsequent wells 3-fold dilution (total 10 dilutions) were performed.
1×ATX assay buffer was made up with a final concentration of 1 mg/mL fatty acid free-BSA using 2×ATX assay buffer, 10 mg/ml fatty acid free-BSA and ddH2O.
38 μL was added per well to the assay plate. The final concentration of ATX in the reaction as 1.0 μg/mL.
2 μL per well of compounds was transferred to provide the desired concentration. The plate was centrifuged, then incubated at room temperature for 30 minutes on the shaker.
FS-3 was diluted with 1×ATX assay buffer to a concentration of FS-3 of 10 μM (5×). Then, 10 μL was added per well to the assay plate. The final concentration of FS-3 in the reaction was 2 μM. The plate was centrifuged. The plate was kept shaking at room temperature for 2 hours. Because FS-3 substrate is light sensitive, plates were kept covered and protected from light.

The target in the next assay is S1P5 (Homo sapiens, UniProt Q9H228). Kind of assay: S1P receptor activity assay (calcium flux, FLIPR TETRA), S1P5. The format is cell-based.
Source text: as §1, §2, §3, §4, §5, §6, §7, §8

A further assay deals with S1P1 (Homo sapiens, UniProt P21453). Kind of assay: S1P receptor activity assay (calcium flux, FLIPR TETRA), S1P1. It counts as cell-based.
Source text: as §1, §2, §3, §4, §5, §6, §7, §8

[1] abbreviates: calcium flux, top concentration 10 μM, the >5 μM sentence says only 'for S1P4', read-out: IC50 for S1P4 agonist activity.
The mark [2] stands for this setting: FS-3 2 μM, ATX 1.0 μg/mL, 2 hours at room temperature, read-out: IC50 (ATX).
Setting [3] is: calcium flux, top concentration 10 μM, read-out: IC50 for S1P5.
Where [4] appears, read: calcium flux, top concentration 10 μM, the >5 μM sentence says only 'for S1P1', read-out: IC50 for S1P1 agonist activity.

What is called IC50 is the concentration at which inhibition is half-maximal.

Read-outs that look alike come from different tables or passages of the source.

Sequence of S1P5 (Q9H228 whole entry): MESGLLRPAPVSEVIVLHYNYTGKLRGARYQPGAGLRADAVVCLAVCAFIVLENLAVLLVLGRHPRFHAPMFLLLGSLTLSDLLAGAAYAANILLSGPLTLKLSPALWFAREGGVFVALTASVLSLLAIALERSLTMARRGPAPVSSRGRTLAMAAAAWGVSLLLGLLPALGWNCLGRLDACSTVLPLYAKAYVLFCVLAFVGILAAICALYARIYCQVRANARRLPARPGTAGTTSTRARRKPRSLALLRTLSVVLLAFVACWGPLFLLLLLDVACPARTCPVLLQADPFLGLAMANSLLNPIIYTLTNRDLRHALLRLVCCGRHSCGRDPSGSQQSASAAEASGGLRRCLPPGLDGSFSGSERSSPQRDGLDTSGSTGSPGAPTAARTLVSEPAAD
Sequence of S1P1 (P21453 whole entry): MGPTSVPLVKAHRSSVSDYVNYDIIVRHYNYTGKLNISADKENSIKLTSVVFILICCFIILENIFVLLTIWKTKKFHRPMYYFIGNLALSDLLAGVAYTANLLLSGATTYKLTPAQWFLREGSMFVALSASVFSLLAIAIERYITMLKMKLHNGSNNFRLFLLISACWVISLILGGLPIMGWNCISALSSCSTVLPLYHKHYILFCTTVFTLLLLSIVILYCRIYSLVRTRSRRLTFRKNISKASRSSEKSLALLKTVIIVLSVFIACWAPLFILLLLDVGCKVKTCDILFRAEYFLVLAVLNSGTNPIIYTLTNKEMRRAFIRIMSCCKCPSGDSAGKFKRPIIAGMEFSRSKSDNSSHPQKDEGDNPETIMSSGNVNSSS

Regarding `CC(C)(C)[C@H]1CC[C@H](Oc2ccc(C3CCN(CCCC(=O)O)CC3)cc2)CC1` [Example 48, 4-(4-(4-((trans-4-(tert-Butyl)cyclohexyl)oxy)phenyl)piperidin-1-yl)butanoic acid], the IC50 on S1P4 (setting [1]) is at most 2 µM; at Human ATX protein (setting [2]) it was at most 5 µM; at S1P5 (setting [3]), at most 2 µM; on S1P1 (setting [4]), at most 2 µM.
For the compound `CC(C)(C)[C@H]1CC[C@H](Oc2ccc(C3=CCN(CCCC(=O)O)CC3)cc2)CC1` [Example 47, 4-(4-(4-((trans-4-(tert-Butyl)cyclohexyl)oxy)phenyl)-5,6-dihydropyridin-1(2H)-yl)butanoic acid], the IC50 at S1P4 was at most 2 µM; on Human ATX protein (setting [2]) it was at most 5 µM; at S1P5 (setting [3]), at most 2 µM; at S1P1, at most 2 µM.
Regarding `O=C(O)CCN1CCC(c2ccc(OC3CCC4(CCCC4)CC3)cc2)CC1` [Example 40, 3-(4-(4-(Spiro[4.5]decan-8-yloxy)phenyl)piperidin-1-yl)propanoic acid], the IC50 at S1P4 (setting [1]) is at most 2 µM; on Human ATX protein (setting [2]), at most 5 µM; at S1P5 (setting [3]) it was at most 2 µM; at S1P1 (setting [4]), 2 to 5 µM.
As to `O=C(O)CCCCN1CCC(c2ccc(OC3CCC4(CCCC4)CC3)cc2)CC1` [Example 44, 5-(4-(4-(Spiro[4.5]decan-8-yloxy)phenyl)piperidin-1-yl)pentanoic acid], the IC50 on S1P4 (setting [1]) was at most 2 µM; at Human ATX protein (setting [2]), above 10 µM; on S1P5 (setting [3]) it was at most 2 µM; at S1P1 (setting [4]), above 5 µM.
In the case of `CCCCCCCCOc1ccc(C2CCCN(C3CCC(C(=O)O)CC3)C2)cc1` (stereo not drawn) [Example 26, 4-(3-(4-(Octyloxy)phenyl)piperidin-1-yl)cyclohexanecarboxylic acid], the IC50 on S1P4 (setting [1]) was 2 to 5 µM; at Human ATX protein (setting [2]) it was 5 to 10 µM; on S1P5 (setting [3]), above 5 µM; at S1P1 (setting [4]), above 5 µM.
With `CC[C@H]1CC[C@@H](Oc2ccc(C3=CCN(CCC(=O)O)CC3)cc2)CC1` [Example 33, 3-(4-(4-((cis-4-Ethylcyclohexyl)oxy)phenyl)-5,6-dihydropyridin-1(2H)-yl)propanoic acid], the IC50 was at most 2 µM at S1P4, above 10 µM on Human ATX protein, above 5 µM at S1P5 and above 5 µM on S1P1.
Consider `CC(C)(C)[C@H]1CC[C@H](Oc2ccc(C3CCCC(N4CCC(C(=O)O)CC4)C3)cc2)CC1` (stereo partly drawn) [Example 10, 1-(3-(4-(trans-4-tert-butylcyclohexyloxy)phenyl)cyclohexyl)piperidine-4-carboxylic acid], for which the IC50 on S1P4 (setting [1]) was above 5 µM; on Human ATX protein (setting [2]), above 10 µM; on S1P5 (setting [3]) it was above 5 µM; at S1P1 (setting [4]), above 5 µM.
Consider `O=C(O)CCCN1CC=C(c2ccc(OC3CCC4(CCCC4)CC3)cc2)CC1` [Example 41, 4-(4-(4-(Spiro[4.5]decan-8-yloxy)phenyl)-5,6-dihydropyridin-1(2H)-yl)butanoic acid], for which the IC50 is 2 to 5 µM on S1P4 (setting [1]), at most 5 µM on Human ATX protein (setting [2]), 2 to 5 µM at S1P5 (setting [3]) and above 5 µM at S1P1 (setting [4]).
In the case of `CC[C@H]1CC[C@H](Oc2ccc(C3CCN(CCCCC(=O)O)CC3)cc2)CC1` [Example 32, 5-(4-(4-((trans-4-Ethylcyclohexyl)oxy)phenyl)piperidin-1-yl)pentanoic acid], the IC50 is above 5 µM on S1P4 (setting [1]), at most 5 µM on Human ATX protein (setting [2]), above 5 µM at S1P5 (setting [3]) and above 5 µM on S1P1 (setting [4]).
Take `CC[C@H]1CC[C@H](Oc2ccc(C3=CCN(CCCC(=O)O)CC3)cc2)CC1` [Example 29, 4-(4-(4-((trans-4-Ethylcyclohexyl)oxy)phenyl)-5,6-dihydropyridin-1(2H)-yl)butanoic acid]: the IC50 on S1P4 is at most 2 µM; at Human ATX protein (setting [2]), above 10 µM; on S1P5 (setting [3]), above 5 µM; at S1P1 it was above 5 µM.
In the case of `CCCCCCCCOc1ccc(N2CCN(CCC(=O)O)CC2)nn1` [Example 20, 3-(4-(6-(Octyloxy)pyridazin-3-yl)piperazin-1-yl)propanoic acid], the IC50 at S1P4 (setting [1]) was 2 to 5 µM; on Human ATX protein (setting [2]), 5 to 10 µM; on S1P5 (setting [3]), above 5 µM; on S1P1 (setting [4]) it was above 5 µM.
With `CC(C)(C)[C@H]1CC[C@H](Oc2ccc(C3=CCN(CCC(=O)O)CC3)cc2)CC1` [Example 45, 3-(4-(4-((trans-4-(tert-Butyl)cyclohexyl)oxy)phenyl)-5,6-dihydropyridin-1(2H)-yl)propanoic acid], the IC50 was at most 2 µM at S1P4, 5 to 10 µM on Human ATX protein (setting [2]), above 5 µM on S1P5 (setting [3]) and 2 to 5 µM on S1P1.
In the case of `CCCCCCCCOc1cnc(N2CCN(CCC(=O)O)CC2)nc1` [Example 21, 3-(4-(5-(Octyloxy)pyrimidin-2-yl)piperazin-1-yl)propanoic acid], the IC50 at S1P4 (setting [1]) was at most 2 µM; at Human ATX protein (setting [2]), 5 to 10 µM; on S1P5 (setting [3]), above 5 µM; at S1P1 (setting [4]) it was above 5 µM.
On to `O=C(O)CCCCN1CC=C(c2ccc(OC3CCC4(CCCC4)CC3)cc2)CC1` [Example 43, 5-(4-(4-(Spiro[4.5]decan-8-yloxy)phenyl)-5,6-dihydropyridin-1(2H)-yl)pentanoic acid], for which the IC50 at S1P4 was 2 to 5 µM; on Human ATX protein (setting [2]), above 10 µM; at S1P5 (setting [3]), above 5 µM; on S1P1 it was above 5 µM.
On to `CC[C@H]1CC[C@H](Oc2ccc(C3=CCN(CCCCC(=O)O)CC3)cc2)CC1` [Example 31, 5-(4-(4-((trans-4-Ethylcyclohexyl)oxy)phenyl)-5,6-dihydropyridin-1(2H)-yl)pentanoic acid], for which the IC50 at S1P4 is at most 2 µM; on Human ATX protein (setting [2]), above 10 µM; at S1P5 (setting [3]) it was above 5 µM; on S1P1, above 5 µM.
As for `CCCCCCCCOc1cccc(C2CCCN(CCCC(=O)O)C2)c1` (stereo not drawn) [Example 6, 4-(3-(3-(Octyloxy)phenyl)piperidin-1-yl)butanoic acid], the IC50 on S1P4 (setting [1]) is at most 2 µM; on Human ATX protein (setting [2]) it was 5 to 10 µM; at S1P5 (setting [3]), above 5 µM; on S1P1 (setting [4]), above 5 µM.
With `CC(C)(C)[C@H]1CC[C@H](Oc2ccc(N3CCN(CCC(=O)O)CC3)cc2)CC1` [Example 17, 3-(4-(4-((trans-4-(tert-Butyl)cyclohexyl)oxy)phenyl)piperazin-1-yl)propanoic acid], the IC50 at S1P4 (setting [1]) was 2 to 5 µM; at Human ATX protein (setting [2]) it was above 10 µM; on S1P5 (setting [3]), above 5 µM; on S1P1 (setting [4]), above 5 µM.
With `O=C(O)CCN1CC=C(c2ccc(OC3CCC4(CCCC4)CC3)cc2)CC1` [Example 39, 3-(4-(4-(Spiro[4.5]decan-8-yloxy)phenyl)-5,6-dihydropyridin-1(2H)-yl)propanoic acid], the IC50 at S1P4 was 2 to 5 µM; against Human ATX protein, above 10 µM; on S1P5, above 5 µM; at S1P1, above 5 µM.
